Measurements as given in US20130012404A1, “CULTURE METHOD, EVALUATION METHOD AND STORAGE METHOD FOR CANCER-TISSUE-DERIVED CELL MASS OR AGGREGATED CANCER CELL MASS” (Osaka Prefectural Hospital Organization, priority 2010, published 2013).

Assays:
[1] = tested on: cell mass derived from the cancer tissue (surgical specimens of human colon cancer, Example 2); assay: Drug sensitivity test with 5-FU on cancer tissue-derived cell masses embedded in collagen gel; assay type: cell-based; conditions: 5-FU 0.01, 0.1, 1, 10 and 100 μg/ml; day 8 after culture vs day 0; FIG. 4
Experimental: Using 5-FU which is known to inhibit DNA synthesis by binding to a thymidylic acid synthetase involved in the metabolism process necessary for DNA synthesis, a drug sensitivity test on a sample of Example 2 was carried out. The test was carried out by embedding the cell masses (×10 each) derived from the cancer tissue in a collagen gel (CellMatrix type IA (Nitta Gelatin Inc.):5×DMEM (Gibco; 12100-038):buffer solution for gel reconstruction (50 mM NaOH, 260 mM NaHCO3, 200 mM HEPES)=7:2:1), and culturing in 1 cc of STEMPRO serum-free medium (Gibco) for human ES cells in an incubator under the culture conditions of 37° C. and 5% CO2. In addition, 5-FU was applied at a concentration of 0.01 μg/ml, 0.1 μg/ml, 1 μg/ml, 10 μg/ml, and 100 μg/ml, and the states of the cells on days 0 and 8 after culture were compared for evaluation. An increasing rate of the area of the cell mass derived from the cancer tissue was expressed relative to 1 of an increasing rate of the area of the cell mass in the culture without application of a drug.

[2] = tested on: aggregated cancer cell mass; assay: Drug sensitivity test with doxorubicin on aggregated cancer cell masses embedded in collagen gel; assay type: cell-based; conditions: doxorubicin 0.1, 1 and 10 μM; day 8 after culture initiation vs day 0; FIG. 14
Experimental: Using doxorubicin that is known to exert an antitumor effect by suppressing the biosynthesis of both DNA and RNA as a result of inhibiting the reaction of DNA polymerase, RNA polymerase, and topoisomerase II due to the insertion of doxorubicin between the base pairs of DNA of tumor cells, a drug sensitivity test was carried out by the sample of Example 12. The test was carried out by embedding the aggregated cancer cell mass (×10 each) in collagen gel (CellMatrix type IA (Nitta Gelatin):5×DMEM (Gibco; 12100-038):buffer solution for gel reconstruction (50 mM NaOH, 260 mM NaHCO3, 200 mM HEPES)=7:2:1) and carrying out culture in 1 cc of a STEMPRO human ES cell serum-free medium (Gibco) under the culture conditions of a temperature of 37° C. in 5% CO2 incubator. In addition, doxorubicin was applied at a concentration of 0.1 μM, 1 μM, and 10 μM, and the states on day 0 and on day […] were compared for evaluation. An increasing rate of the area of the aggregated cancer cell mass was relatively expressed when an increasing rate of the area of the cell mass in the culture without application of a drug was determined to be 1.

O=c1[nH]cc(F)c(=O)[nH]1 [5-FU]
proliferation of the cancer cell (increasing rate of the area of the cell mass relative to 1 without drug) [1]: concentration-dependently suppressed

COc1cccc2c1C(=O)c1c(O)c3c(c(O)c1C2=O)C[C@@](O)(C(=O)CO)C[C@@H]3O[C@H]1C[C@H](N)[C@H](O)[C@H](C)O1 [doxorubicin]
proliferation of the cancer cell (increasing rate of the area of the aggregated cancer cell mass relative to 1 without drug) [2]: concentration-dependently suppressed
